Source: patent US20130059783A1, “COMPOSITIONS AND METHODS FOR EXPANDING BFU-E CELLS” (priority 2010, published 2013)

Test system: mRNA expression in BFU-E cells
Test: mRNA-Seq of BFU-E cells cultured 4 hours with or without Dex (Table S3)
Assay type: cell-based, mouse
Conditions: for Expression level log2((100 nM DEX)* (0 nM DEX)) / Expression of mRNA in BFU-E after 4 h 100 nM DEX (RPKM) / Expression change log2 ((100 nM DEX)/(0 nM DEX)) / Expression change log2 ((100 nM DEX)/(0 nM DEX))2: BFU-E, 4 h; for Expression change log2 ((100 nM DEX)/(0 nM DEX)): 100 nM vs 0 nM DEX
Excerpt: FIGS. 2A-2B. The effect of glucocorticoids on miRNA and mRNA expression in BFU-E cells determined by next generation sequencing. […] Both mRNAs and miRNAs were subjected to Illumina deep sequencing. […] (B) A plot similar to that in A for expression of individual mRNAs. mRNA expression was normalized using the RPKM method, which determines the relative expression of each gene to all expressed genes by giving each gene an RPKM count (number of uniquely aligning reads per kb exon per million total reads). […]
To minimize the risk of false positive GC target genes we chose to compare only highly expressed genes (≈10,000 genes with a multiplied RPKM count >4) (Mortazavi et al., 2008).
Samples for Paired-End mRNA-Seq were prepared using the Solexa kit according to the manufacturer's instructions with the exception that we extracted 300 bp bands, before and after the PCR step (Illumina). Images acquired from the Solexa sequencer were processed through the bundled Solexa image extraction pipeline version 1.4. mRNA-Seq reads were aligned to mouse NCBI build 37 (mm9) using ELAND, Briefly, the first 32 bases of a read were used as a seed. Each matched seed was then extended up to 36 bases and scored to break any ties between multi-matches. For mRNA expression counts, unique reads in the genome that landed within any exons of NCBI gene models (v37.1) were counted. The counts were normalized by the mRNA length to get the final RPKM values (i.e. reads per KB per million reads).

[1] = BFU-E cells, 4 hours, 100 nM Dex
[2] = gene 38413 (membrane-associated ring finger (C3HC4) 3)

C[C@@H]1C[C@H]2[C@@H]3CCC4=CC(=O)C=C[C@]4(C)[C@@]3(F)[C@@H](O)C[C@]2(C)[C@@]1(O)C(=O)CO [Dex, dexamethasone]
Upregulation of Ddit4 (BFU-E cells, 4 hours): > 8 fold | Genes differentially expressed (more than a factor of 2) [1]: 195 genes | Genes down regulated (more than a factor of 2) [1]: 112 genes | Genes up regulated (more than a factor of 2) [1]: 83 genes | Expression level log2((100 nM DEX)* (0 nM DEX)) [2]: 4.94 | Expression of mRNA in BFU-E after 4 h 100 nM DEX (RPKM) [2]: 8.25 RPKM | Expression of mRNA in BFU-E after 4 h 100 nM DEX (RPKM) (gene 0610040J01Rik): 14.77 RPKM | Expression change log2 ((100 nM DEX)/(0 nM DEX)) (gene 0610040J01Rik): 2.84 | Expression of mRNA in BFU-E after 4 h 100 nM DEX (RPKM) (gene Acp5): 20.40 RPKM | Expression change log2 ((100 nM DEX)/(0 nM DEX)) (gene Acp5): 2.70 | Expression of mRNA in BFU-E after 4 h 100 nM DEX (RPKM) (gene Ampd3): 15.71 RPKM | Expression of mRNA in BFU-E after 4 h 100 nM DEX (RPKM) (gene Ank): 48.60 RPKM | Expression change log2 ((100 nM DEX)/(0 nM DEX)) (gene Ank): 2.06 | Expression change log2 ((100 nM DEX)/(0 nM DEX))2 (gene Aqp3): 1.34 | Expression of mRNA in BFU-E after 4 h 100 nM DEX (RPKM) (gene Aqp3): 6.98 RPKM | Expression of mRNA in BFU-E after 4 h 100 nM DEX (RPKM) (gene Arhgef3): 16.21 RPKM | Expression change log2 ((100 nM DEX)/(0 nM DEX)) (gene Arhgef3): 2.88 | Expression level log2((100 nM DEX)* (0 nM DEX)) (gene Atp2b4): 9.79 | Expression of mRNA in BFU-E after 4 h 100 nM DEX (RPKM) (gene Atp2b4): 43.89 RPKM | Expression of mRNA in BFU-E after 4 h 100 nM DEX (RPKM) (gene Bcl2): 6.45 RPKM | Expression change log2 ((100 nM DEX)/(0 nM DEX)) (gene Bcl2): 1.69 | Expression of mRNA in BFU-E after 4 h 100 nM DEX (RPKM) (gene Cables1): 4.90 RPKM | Expression change log2 ((100 nM DEX)/(0 nM DEX))2 (gene Ccnd1): 1.34 | Expression level log2((100 nM DEX)* (0 nM DEX)) (gene Ccnd1): 3.76 | Expression of mRNA in BFU-E after 4 h 100 nM DEX (RPKM) (gene Ccnd1): 5.86 RPKM | Expression level log2((100 nM DEX)* (0 nM DEX)) (gene Cd59a): 2.18 | Expression of mRNA in BFU-E after 4 h 100 nM DEX (RPKM) (gene Cd59a): 3.15 RPKM | Expression of mRNA in BFU-E after 4 h 100 nM DEX (RPKM) (gene Clca1): 7.54 RPKM | Expression change log2 ((100 nM DEX)/(0 nM DEX)) (gene Clca1): 2.07 | Expression level log2((100 nM DEX)* (0 nM DEX)) (gene Clcn2): 5.04 | Expression of mRNA in BFU-E after 4 h 100 nM DEX (RPKM) (gene Clcn2): 8.78 RPKM | Expression level log2((100 nM DEX)* (0 nM DEX)) (gene Clint1): 15.15 | Expression of mRNA in BFU-E after 4 h 100 nM DEX (RPKM) (gene Clint1): 285.78 RPKM | Expression of mRNA in BFU-E after 4 h 100 nM DEX (RPKM) (gene Clstn1): 70.51 RPKM | Expression change log2 ((100 nM DEX)/(0 nM DEX)) (gene Clstn1): 1.72 | Expression level log2((100 nM DEX)* (0 nM DEX)) (gene Cyth3): 11.35 | Expression of mRNA in BFU-E after 4 h 100 nM DEX (RPKM) (gene Cyth3): 75.31 RPKM | Expression of mRNA in BFU-E after 4 h 100 nM DEX (RPKM) (gene Ddit4): 20.23 RPKM | Expression change log2 ((100 nM DEX)/(0 nM DEX)) (gene Ddit4): 3.08 | Expression level log2((100 nM DEX)* (0 nM DEX)) (gene E430018J23Rik): 2.10 | Expression of mRNA in BFU-E after 4 h 100 nM DEX (RPKM) (gene E430018J23Rik): 3.02 RPKM | Expression of mRNA in BFU-E after 4 h 100 nM DEX (RPKM) (gene Egln3): 16.47 RPKM | Expression change log2 ((100 nM DEX)/(0 nM DEX)) (gene Egln3): 3.00 | Expression of mRNA in BFU-E after 4 h 100 nM DEX (RPKM) (gene Egr1): 18.06 RPKM | Expression of mRNA in BFU-E after 4 h 100 nM DEX (RPKM) (gene Fam46a): 6.44 RPKM | Expression change log2 ((100 nM DEX)/(0 nM DEX)) (gene Fam46a): 1.68 | Expression of mRNA in BFU-E after 4 h 100 nM DEX (RPKM) (gene Fam46c): 13.90 RPKM | Expression level log2((100 nM DEX)* (0 nM DEX)) (gene Fam55c): 5.91 | Expression of mRNA in BFU-E after 4 h 100 nM DEX (RPKM) (gene Fam55c): 11.20 RPKM | Expression of mRNA in BFU-E after 4 h 100 nM DEX (RPKM) (gene Fam83g): 8.67 RPKM | Expression level log2((100 nM DEX)* (0 nM DEX)) (gene Fes): 2.34 | Expression of mRNA in BFU-E after 4 h 100 nM DEX (RPKM) (gene Fes): 3.48 RPKM | Expression of mRNA in BFU-E after 4 h 100 nM DEX (RPKM) (gene Fkbp5): 74.76 RPKM | Expression change log2 ((100 nM DEX)/(0 nM DEX)) (gene Fkbp5): 1.71 | Expression level log2((100 nM DEX)* (0 nM DEX)) (gene Fkbp11): 9.88 | Expression of mRNA in BFU-E after 4 h 100 nM DEX (RPKM) (gene Fkbp11): 44.44 RPKM | Expression of mRNA in BFU-E after 4 h 100 nM DEX (RPKM) (gene Frmd4a): 28.77 RPKM | Expression change log2 ((100 nM DEX)/(0 nM DEX)) (gene Frmd4a): 2.03 | Expression level log2((100 nM DEX)* (0 nM DEX)) (gene Glul): 12.54 | Expression of mRNA in BFU-E after 4 h 100 nM DEX (RPKM) (gene Glul): 110.54 RPKM | Expression change log2 ((100 nM DEX)/(0 nM DEX))2 (gene Gm129): 1.01 | Expression level log2((100 nM DEX)* (0 nM DEX)) (gene Gm129): 2.29 | Expression of mRNA in BFU-E after 4 h 100 nM DEX (RPKM) (gene Gm129): 3.14 RPKM | Expression of mRNA in BFU-E after 4 h 100 nM DEX (RPKM) (gene Gna14): 3.37 RPKM | Expression level log2((100 nM DEX)* (0 nM DEX)) (gene Gng13): 3.81 | Expression of mRNA in BFU-E after 4 h 100 nM DEX (RPKM) (gene Gng13): 5.76 RPKM | Expression of mRNA in BFU-E after 4 h 100 nM DEX (RPKM) (gene Gsta4): 9.00 RPKM | Expression change log2 ((100 nM DEX)/(0 nM DEX)) (gene Gsta4): 2.60 | Expression of mRNA in BFU-E after 4 h 100 nM DEX (RPKM) (gene Hif3a): 101.46 RPKM | Expression change log2 ((100 nM DEX)/(0 nM DEX)) (gene Hif3a): 1.38 | Expression of mRNA in BFU-E after 4 h 100 nM DEX (RPKM) (gene Hopx): 13.32 RPKM | Expression change log2 ((100 nM DEX)/(0 nM DEX)) (gene Hopx): 1.82 | Expression of mRNA in BFU-E after 4 h 100 nM DEX (RPKM) (gene Hp): 4.41 RPKM | Expression change log2 ((100 nM DEX)/(0 nM DEX))2 (gene Ier2): 1.05 | Expression level log2((100 nM DEX)* (0 nM DEX)) (gene Ier2): 10.07 | Expression of mRNA in BFU-E after 4 h 100 nM DEX (RPKM) (gene Ier2): 47.27 RPKM | Expression level log2((100 nM DEX)* (0 nM DEX)) (gene Ier3): 3.80 | Expression of mRNA in BFU-E after 4 h 100 nM DEX (RPKM) (gene Itgb3): 7.39 RPKM | Expression change log2 ((100 nM DEX)/(0 nM DEX)) (gene Itgb3): 2.37
